# Measurements reported in publication PMC11477209, “Toxicological Evaluation of Kaempferol and Linearolactone as Treatments for Amoebic Liver Abscess Development in Mesocricetus auratus” (International Journal of Molecular Sciences, 2024).
# Columns and labels:
# [1] = test system: CHO-K1 cells; experiment: MTT cytotoxicity assay; assay type: cell-based, Chinese hamster; settings: 24 h, MTT
# [2] = test system: E. histolytica trophozoites; experiment: Cell morphology by confocal microscopy (actin); assay type: cell-based, Entamoeba histolytica; settings: phalloidin-rhodamine, treatment with IC50
# Experimental: Then, the culture medium was removed, and the adhered cells were fixed with 4% paraformaldehyde for 1 h at 37 °C. The samples were washed three times with 1× PBS and incubated with 1:50 phalloidin–rhodamine (R415, Invitrogen; Carlsbad, CA, USA) for 1 h at 37 °C. Finally, the cells were washed, mounted with VectaShield/DAPI medium (Vector Laboratories; Newark, CA, USA), and observed with a confocal microscope (LSM-700, Zeiss; Oberkochen, Germany).
# [3] = Paraclinical analysis (serum biochemistry, hematic biometry) in ALA hamsters; assay type: in vivo, Mesocricetus auratus; set-up: BUN: unit not given here
# Experimental: Serum was obtained by centrifugation at 3500 rpm and frozen at −70 °C until analysis. Hematic biometry was performed in a hematology autoanalyzer system (BC-2300, Mindray; Shenzhen, China), and biochemical parameters were made on an automatic medical system (Prestige 24i, Tokyo Boeki; Kanagawa, Japan).
# [4] = test system: E. histolytica trophozoites; settings: 48 h; ref [12],[13]; read-out: IC50 E. histolytica trophozoites (antiproliferative activity); cited from earlier work
# [5] = in vivo
# Experimental: After blood samples were obtained, the hamsters were sacrificed with a lethal dose of sodium pentobarbital, followed by a cervical fracture. They were mounted on a dissecting board for the necropsy. A complete mid-laparotomy was performed to remove the lungs, spleen, heart, liver, and kidneys. An excisional biopsy was performed to recover the ALA lesions for morphometric analysis. The organs and ALA lesions were rinsed with 1× PBS, weighed, and adherent tissue was removed. […] Later, the inclusion protocol was performed to obtain histological sections (3 μm thick) with a rotatory microtome (RM2125-RTS, Leica; Wetzlar, Germany). Tissue slices were stained with hematoxylin-eosin (Merck; Rahway, NJ, USA), mounted on coverslips with Entellan^TM-New (Merck; Rahway, NJ, USA), and observed with optical microscopy (Eclipse 80i, Nikon; Tokio, Japan).
# [6] = test system: E. histolytica trophozoites (virulent HM-1 strain); settings: 48 h
# [7] = blood, ALA hamsters, i.p. 4 days
# [8] = serum, ALA hamsters, i.p. 4 days
# [9] = MTZ 0.16, KP 31.6, LL 15.6 μg/mL
smiles,measurement,setting,value
"C[C@]12C[C@H](c3ccoc3)OC(=O)[C@H]1CCC13COC(=O)C1=CC=C[C@H]32 (stereo partly drawn) [LL, (4S,7R,9R,10S)-7-(furan-3-yl)-9-methyl-6,16-dioxatetracyclo[8.7.0.01,14.04,9]heptadeca-11,13-diene-5,15-dione]",biological activity symbol on IC50 CHO-K1,[1],-
same,IC50,"[1]; Cricetulus griseus, CHO-K1, read-out: IC50 CHO-K1",300 µg/mL
same,actin cytoskeleton alteration,[2],reduction in polymerized actin
same,AL/GGT ratio,[3]; ALA prognosis ratio,0.23 ± 0.038
same,Erythrocytes,[3]; [7],6.7 ± 0.4 x10 6/mm3
same,Hematocrit,[3]; [7],45.4 ± 2.9%
same,Hemoglobin,[3]; [7],16 ± 0.8 g/dL
same,Leukocytes,[3]; [7],7.1 ± 1.8 x100/mm3
same,MCH,[3]; [7],24 ± 0.3 pg
same,MCHC,[3]; [7],35 ± 0.9 g/dL
same,MCV,[3]; [7],68 ± 2.2 fL
same,MPV,[3]; [7],7.7 ± 0.5 fL
same,PCT,[3]; [7],0.2 ± 0.0%
same,PDW,[3]; [7],9.4 ± 0.3 fL
same,Platelets,[3]; [7],303 ± 31 x106/μL
same,RDW-CV,[3]; [7],14.7 ± 0.6 fL
same,RDW-SD,[3]; [7],40 ± 2.3 fL
same,TB/AL ratio,[3]; drug toxicity ratio,0.22 ± 0.005
same,neutrophil/lymphocyte ratio,[3]; hematic ratio,1.66 ± 1.26
same,BUN/CR ratio,[3]; kidney damage ratio,31.6 ± 9.8
same,urea/CR ratio,[3]; kidney damage ratio,73.1 ± 26
same,ALP/TB ratio,[3]; liver injury ratio,10.85 ± 1.28
same,ALT/ALP ratio,[3]; liver injury ratio,0.25 ± 0.05
same,AST/ALT ratio (De Ritis ratio),[3]; liver injury ratio,> 1
same,Band neutrophils,[3]; manual differential analysis,0%
same,Basophils,[3]; manual differential analysis,0%
same,Eosinophils,[3]; manual differential analysis,0%
same,Immature forms,[3]; manual differential analysis,0%
same,Lymphocytes,[3]; manual differential analysis,44 ± 21%
same,Monocytes,[3]; manual differential analysis,0%
same,Segmented neutrophils,[3]; manual differential analysis,56 ± 21%
same,ALT (GPT),[3]; [8],89 ± 16 U/L
same,AST (GOT),[3]; [8],163 ± 22 U/L
same,Albumin,[3]; [8],1.7 ± 0.1 g/dL
same,Alkaline phosphatase,[3]; [8],355 ± 9.5 U/L
same,BUN,[3]; [8],16.1 ± 1.5
same,Cholesterol,[3]; [8],105 ± 24 mg/dL
same,Creatinine,[3]; [8],0.54 ± 0.2 mg/dL
same,Direct bilirubin,[3]; [8],0.26 ± 0.04 mg/dL
same,GGT,[3]; [8],7.5 ± 2.1 U/L
same,Glucose,[3]; [8],123 ± 20 mg/dL
same,Indirect bilirubin,[3]; [8],0.12 ± 0.0 mg/dL
same,Total bilirubin,[3]; [8],0.37 ± 0.04 mg/dL
same,Total protein,[3]; [8],5.3 ± 0.3 g/dL
same,Triglycerides,[3]; [8],132 ± 8.7 mg/dL
same,Urea,[3]; [8],37 ± 6.01 mg/dL
same,IC50,[4],22.9 µM
same,Heart largest diameter,[5],1.1 ± 0.07 cm
same,Heart weight,[5],0.38 ± 0.08 g
same,Kidneys largest diameter,[5],1.1 ± 0.08 cm
same,Kidneys weight,[5],0.49 ± 0.07 g
same,Liver largest diameter,[5],3.94 ± 0.16 cm
same,Liver weight,[5],5.5 ± 0.9 g
same,Lungs largest diameter,[5],2.4 ± 0.1 cm
same,Lungs weight,[5],0.74 ± 0.06 g
same,Spleen largest diameter,[5],3.4 ± 0.4 cm
same,Spleen weight,[5],0.26 ± 0.05 g
same,biological activity symbol on IC50 HM-1,[6],+
same,IC50 HM-1,[6]; flow cytometry,< 7.8 µg/mL
same,apoptotic trophozoites,[6]; [9],4.3%
same,necrotic trophozoites,[6]; [9],90.1%
same,decrease of size and granularity of the cell population,"[6]; MTZ 0.16, KP 31.6, LL 15.6 μg/mL, vs Vh",66%
